Source: patent US4812443A, “Methods for enhancing differentiation and proliferation of hematopoietic progenitor cells” (Kuraray Co., Ltd., priority 1984, dated 1989)

Experiments:
[1] = tested on: erythropoietic progenitor cells; conditions: in vitro cell culture, presence of hematopoietic stimulating hormones; Table 1; cited from earlier work
[2] = general knowledge; cited from earlier work
[3] = tested on: late erythrocytic progenitor cells (CFU-e); assay: Differentiation and proliferation of late erythrocytic progenitor cells (CFU-e), cluster colony formation; assay type: cell-based, mouse (BDF1-strain); conditions: 20 μg/ml, Runs 2 to 4; for Number of colonies formed in the dolichols-added group (CFU-e): 2 days, erythropoietin 0.25 unit, mean ± S.E., 6 replicas, solvent controls 124.2 ± 2.7, 246.0 ± 5.0, 124.7 ± 2.9
Description: (§1) The mouse bone marrow cells used in the following experiments were all prepared as follows:
(§2) BDF1 -strain mice (female, 8 to 10 weeks old) were killed by cervical dislocation, and the femurs were collected under sterile conditions. The bone marrow cells were flushed out from the femurs with α-medium, and formed into a single cell suspension by repeated aspiration with a 26-gauge needle fitted to a 1 ml-syringe. The cells were washed two times with α-medium by centrifugation at 200×G for 5 minutes and used in the following experiments.
In accordance with the method of Murphy et al. mentioned above, mouse bone marrow cells were plated at 2.5×10^4 nuclear cells into 0.5 ml of α-medium containing 0.25 unit of erythropoietin, 30% fetal bovine serum, 1% bovine serum albumin, 0.1 mM 2-mercaptoethanol and 0.4% methyl cellulose with 10 μg of dolichol dissolved in 1 μl of ethanol, 10 μg of dolichyl phosphate dispersed in 0.5 μl of dimethyl sulfoxide, 1 μl of ethanol or 0.5 μl of dimethyl sulfoxide in a 16 mm.phi. tissue culture plate, and incubated at 37° C. in a humidified atmosphere of 5% carbon dioxide in air for 2 days. The number of cluster colonies consisting of 8 to 64 erythroblasts derived from CFU-e in the tissue culture plate was scored with an inverted microscope. The experiment was carried out by 6 replica assays for each group, and the average number of the colonies formed was determined. The results are shown in Table 3, in the rows of Runs 2 to 4.

sea urchin embryos = conditions: compactin added to the culture of the embryos; cited from earlier work
[4] = tested on: dolichol biosynthesis in spleen; conditions: phenylhydrazine subcutaneous (induced anemia); cited from earlier work
[5] = tested on: early erythrocytic progenitor cells (BFU-e); assay: Differentiation and proliferation of early erythrocytic progenitor cells (BFU-e), burst colony formation; assay type: cell-based, mouse (BDF1-strain); conditions: 20 μg/ml, Run 1
Description: as §1, §2
In accordance with the method of Murphy et al. (In Vitro Aspects of Erythropoiesis, page 262, Sringer-Verlag, 1978), mouse bone marrow cells were plated at 2×10^5 nuclear cells into 1 ml of α-medium containing 1 unit of erythropoietin, 30% fetal bovine serum, 1% bovine serum albumin, 0.1 mM 2-mercaptoethanol and 0.8% methyl cellulose with 20 μg of dolichyl phosphate dispersed in 1 μl of dimethyl sulfoxide or 1 μl of dimethyl sulfoxide in a 35 mm.phi. tissue culture plate, and incubated at 37° C. in a humidified atmosphere of 5% carbon dioxide in air for 9 days. The number of burst colonies consisting of more than 500 erythroblasts derived from BFU-e in the tissue culture plate was scored with an inverted microscope. The experiment was carried out by 6 replica assays for each group, and the average number of the colonies formed was determined.

[6] = tested on: granulocyte-macrophage progenitor cells (CFU-c); assay: Differentiation and proliferation of granulocyte-macrophage progenitor cells (CFU-c), colony formation; assay type: cell-based, mouse (BDF1-strain); conditions: printed 20 g/ml (method: 20 μg in 1 ml), Run 5
Description: as §1, §2
In accordance with the method of Worton et al. [R. G. Worton et al., J. Cell Physiol., 74, 171 (1969)], mouse bone marrow cells were plated at 1×10^5 nuclear cells into 1 ml of α-medium containing 10% L cell-conditioned medium as source of colony stimulating factor, 20% fetal bovine serum and 0.8% methyl cellulose with 20 μg of dolichyl phosphate dispersed in 1 μl of dimethyl sulfoxide or 1 μl of dimethyl sulfoxide in a 35 mm.phi. tissue culture plate, and incubated at 37° C. in a humidified atmosphere of 5% carbon dioxide in air for 7 days. The number of colonies consisting of more than 50 cells (granulocytecolonies, macrophage colonies or their mixed colonies) derived from […] was scored with an inverted microscope. The experiment was carried out by 6 replica assays for each group, and the average number of the colonies formed was determined.

erythropoiesis = assay: Erythropoiesis in vivo, 59Fe incorporation in hereditarily anemic mice (Run 7); set-up: species or system mouse (WBB6 F1-W/Wv-strain); conditions: 250 mg/kg once i.p.
Description: Phenylhydrazine was administered to normal mice and hereditarily anemic mice to induce severe hemolytic anemia. Then, the rate of erythropoiesis during recovering of anemia was determined by measuring the rate of radioactive iron (^59 Fe) incorporation into newly formed red blood cells [P. M. Cotes, D. R. Bangham, Nature (London), 191, 1067 (1961)]. The testing method and results are described below.
Dolichyl phosphate in a dose of 250 mg/kg (0.2 ml of an emulsion obtained by emulsifying […] of dolichyl phosphate and 25 mg of sesame oil in 1 ml of a 1% aqueous solution of sodium carboxymethyl cellulose per 20 g of the body weight) was intraperitoneally administered to hereditarily anemic WBB6 F1 -W/Wv-strain mice (6 weeks old, female) on the 1st day of the experiment. A 1% aqueous solution of sodium carboxymethyl cellulose was intraperitoneally administered (0.2 ml/20 g of body weight) to a control group. On the 2nd day, the mice in each group were subcutaneously injected with phenylhydrazine hydrochloride in a dose of 60 mg/kg. […] On the 5th day, 0.5 ml of the whole blood was taken from each mouse, and the ^59 Fe incorporation rates during the period of 48 hours were measured as in Run 6. The experiment was carried out on 6 mice in each group, and the average value of the incorporation rates was calculated.

mice = assay: Acute toxicity of dolichyl phosphate in mice; assay type: in vivo, mouse (BDF1-strain); conditions: 1000 mg/kg and 2000 mg/kg i.p.; 2nd day of administration
Description: (2) Dolichyl phosphate synthesized in Referential Example 3 below was dissolved in the same amount of sesame oil, and added to a 1% aqueous solution of sodium carboxy methyl cellulose so that the concentration of dolichyl phosphate reached 5% V/V. The resulting emulsion was used in the test.
BDF1 -strain mice (20-23 g, female), 6 per group, were used.

C[C@@H]1C[C@H]2[C@@H]3CCC4=CC(=O)C=C[C@]4(C)[C@@]3(F)[C@@H](O)C[C@]2(C)[C@@]1(O)C(=O)CO [Dexamethasone]
Effect on colony formation of erythropoietic progenitor cells [1]: .uparw.
Side-effects [2]: clinically undesirable side-effects such as electrolytic disorders, hypertension, peptic ulcer, diabetes, liver impediments, and masculinization

CC(C)=CCC/C(C)=C/CC/C(C)=C/CC/C(C)=C\CC/C(C)=C\CC/C(C)=C\CC/C(C)=C\CC/C(C)=C\CC/C(C)=C\CC/C(C)=C\CC/C(C)=C\CC/C(C)=C\CC/C(C)=C\CC/C(C)=C\CC/C(C)=C\CC/C(C)=C\CC/C(C)=C\CC/C(C)=C\CC[C@H](C)CCO [Dolichol (n = 15)]
Number of colonies formed in the dolichols-added group (CFU-e) [3]: 293.0 ± 6.2
activation at 20 µg/mL ([3]; Mus musculus, 48 h, vs solvent-added control group, read-out: Percent increase (%) of colony formation (CFU-e)): 19.1%

CC[C@H](C)C(=O)O[C@H]1CCC=C2C=C[C@H](C)[C@H](CC[C@@H]3C[C@@H](O)CC(=O)O3)[C@H]21 [compactin]
Differentiation of sea urchin embryos (sea urchin embryos): did not occur

NNc1ccccc1 [phenylhydrazine, reference compound]
Rate of dolichol biosynthesis in spleen [4]: greatly increased

Growth hormone: hormone named in Table 1
Effect on colony formation of erythropoietic progenitor cells [1]: .uparw.

Prostaglandin E
Effect on colony formation of erythropoietic progenitor cells [1]: .uparw.

Thyroid hormone
Effect on colony formation of erythropoietic progenitor cells [1]: .uparw.

dolichyl phosphate
Number of colonies formed in the dolichols-added group (BFU-e) ([5]; 9 days, erythropoietin 1 unit, mean ± S.E., 6 replicas, solvent control 73.7 ± 3.4): 99.5 ± 2.4
Percent increase (%) of colony formation (BFU-e) ([5]; vs solvent-added control group): +35.0%
Number of colonies formed in the dolichols-added group (CFU-e) [3]: 166.7 ± 2.4
Percent increase (%) of colony formation (CFU-e) ([3]; vs solvent-added control group): +33.7%
Number of colonies formed in the dolichols-added group (CFU-c) ([6]; 7 days, mean ± S.E., 6 replicas, solvent control 256.8 ± 4.3): 295.3 ± 4.9
Percent increase (%) of colony formation (CFU-c) ([6]; vs solvent-added control group): +15.0%
59Fe incorporation rate (%), dolichol administered group (erythropoiesis; 48 hours, control group 21.4): 23.1%
Erythropoiesis enhancing ratio (%) (erythropoiesis; percent increase of 59Fe incorporation rate vs control): +7.9%
Mortality (mice): no case of death in all of the mice tested

B1: Human chorionic somatomammotropin: hormone named in Table 1 (protein, UniProt P0DML2 27-217, looked up)
Chorionic somatomammotropin …: VQTVPLSRLFDHAMLQAHRAHQLAIDTYQEFEETYIPKDQKYSFLHDSQTSFCFSDSIPTPSNMEETQQKSNLELLRISLLLIESWLEPVRFLRSMFANNLVYDTSDSDDYHLLKDLEEGIQTLMGRLEDGSRRTGQILKQTYSKFDTNSHNHDALLKNYGLLYCFRKDMDKVETFLRMVQCRSVEGSCGF
Effect on colony formation of erythropoietic progenitor cells [1]: .uparw.
